Read-outs that look alike come from different tables or passages of the source.
Tests used:
[1] = test system: KP1004 (KPC-2); test: Aztreonam potentiation (MPC@4); assay type: cell-based; details: aztreonam 4 μg/mL
[2] = test system: ec302 (TEM-10); test: Tigemonam potentiation (MPC@4); assay type: cell-based; details: tigemonam 4 μg/mL
[3] = test system: PAM1032/KPC-2; test: Biapenem potentiation MPC64, efflux proficient strain; assay type: cell-based, Pseudomonas aeruginosa; design: unit not given here; details: efflux proficient (MexAB-OprM overexpressed); decrease biapenem MIC 64-fold, 32 to 0.5 μg/ml
Method: (§1) Efflux of BLIs from Pseudomonas aeruginosa by the MexAB-OprM efflux pump was also evaluated. The plasmid expressing the gene encoding KPC-2 was introduced into two strains of P. aeruginosa, PAM1032 and PAM1154 that overexpressed or lacked MexAB-OprM, respectively. Due to expression of KPC-2 both strains became resistant to biapenem. […] Potency of BLIs to potentiate biapenem in these strains was determined. […] The ratio of MPC64 values for each BLI in PAM1032/KPC-2 (efflux proficient) and PAM1154/KPC-2 (efflux deficient) was determined to generate the Efflux Index (EI).

[4] = test system: EC1010 (CMY-6); test: Aztreonam potentiation (MPC@4); assay type: cell-based; details: aztreonam 4 μg/mL
[5] = test system: KP1009 (CTX-M-15); test: Aztreonam potentiation (MPC@4); assay type: cell-based; details: aztreonam 4 μg/mL
[6] = test system: ec308 (SHV-5); test: Aztreonam potentiation (MPC@4); assay type: cell-based; details: aztreonam 4 μg/mL
[7] = biological target: P99 (Enterobacter cloacae, UniProt P05364); test: biochemical; details: nitrocefin reporter substrate; 10 min preincubation; read-out: Ki P99, NCF
Method: (§2) Ki values of inhibition of purified class A, C and D enzymes were determined spectrophotometrically using nitrocefin as reporter substrate. Purified enzymes were mixed with various concentrations of inhibitors in reaction buffer and incubated for 10 min at room temperature. Nitrocefin was added and substrate cleavage profiles were recorded at 490 nm every 10 sec for 10 min.

[8] = Oral pharmacokinetics; assay type: in vivo; details: rat, plasma, rats, n=3, read-out: Range of % Oral Bioavailability
Method: Several compounds were tested for their oral pharmacokinetics. Rats (n=3 per compound) were administered a single oral dose. Oral doses were administered as a bolus. Plasma (˜0.3 mL) samples were collected from each rat at designated time points up to 24 hours. Blood samples were centrifuged within 5 min of collection at 12000 g for 5 min to obtain plasma. The plasma samples were stored at −80° C. until analyzed. Data were analyzed using WinNonlin.

[9] = test system: ECL1002; test: Aztreonam potentiation (MPC@4); assay type: cell-based; details: aztreonam 4 μg/mL
[10] = test system: KP1004 (KPC-2); test: Biapenem potentiation (MPC@1); details: biapenem 1 μg/mL
[11] = test system: ECL1002; test: Tigemonam potentiation (MPC@4); assay type: cell-based; details: tigemonam 4 μg/mL
[12] = test system: KP1010 (SHV-12); test: Aztreonam potentiation (MPC@4); assay type: cell-based; details: aztreonam 4 μg/mL
[13] = biological target: CTX-M-14 (Escherichia coli, UniProt Q9L5C7); test: Inhibition of nitrocefin cleavage by purified enzyme (Ki); assay type: biochemical; details: nitrocefin reporter substrate; 10 min preincubation; read-out: Ki CTX-M-14, NCF
Method: as §2

[14] = biological target: SHV-12 (Klebsiella pneumoniae, UniProt P0AD64, E235K/G234S/L31Q); test: as above; assay type: biochemical
Method: as §2

[15] = test system: PAM1154/KPC-2; test: Biapenem potentiation MPC64, efflux deficient strain; assay type: cell-based, Pseudomonas aeruginosa; design: unit not given here; details: efflux deficient (lacks MexAB-OprM); decrease biapenem MIC 64-fold, 32 to 0.5 μg/ml
Method: as §1

[16] = test system: EC1010 (CMY-6); test: Tigemonam potentiation (MPC@4); assay type: cell-based; details: tigemonam 4 μg/mL; EC1010, CMY-6
[17] = biological target: KPC-2 (Klebsiella pneumoniae, UniProt Q9F663); test: Inhibition of nitrocefin cleavage by purified enzyme (Ki); assay type: biochemical; details: nitrocefin reporter substrate; 10 min preincubation; read-out: Ki KPC-2, NCF
Method: (§3) Ki values of inhibition of purified class A, C and D enzymes were determined spectrophotometrically using nitrocefin as reporter substrate. Purified enzymes were mixed with various concentrations of inhibitors in reaction buffer and incubated for 10 min at room temperature. Nitrocefin was added and substrate cleavage profiles were recorded at 490 nm every 10 sec for 10 min. These experiments confirmed that the described compounds are inhibitors with a broad-spectrum of activity towards various β-lactamases.

[18] = biological target: CMY-2 (Klebsiella pneumoniae, UniProt Q48434); test: as above; assay type: biochemical; details: nitrocefin reporter substrate; 10 min preincubation; read-out: Ki CMY-2, NCF
Method: as §3

[19] = biological target: OXA-48 (Klebsiella pneumoniae, UniProt Q6XEC0); test: as above; assay type: biochemical; details: nitrocefin reporter substrate; 10 min preincubation; read-out: Ki OXA-48, NCF
Method: as §3

[20] = test system: KP1005 (CTX-M-14); test: Tigemonam potentiation (MPC@4); assay type: cell-based; details: tigemonam 4 μg/mL
[21] = test system: KP1009 (CTX-M-15); test: Tigemonam potentiation (MPC@4); assay type: cell-based
[22] = test system: KP1086 (OXA-48); test: Biapenem potentiation (MPC@1); details: biapenem 1 μg/mL
[23] = test system: KP1010 (SHV-12); test: Tigemonam potentiation (MPC@4); assay type: cell-based
[24] = test system: ec308 (SHV-5); test: Tigemonam potentiation (MPC@4); assay type: cell-based; details: tigemonam 4 μg/mL
[25] = test system: KP1005 (CTX-M-14); test: Aztreonam potentiation (MPC@4); assay type: cell-based; details: aztreonam 4 μg/mL
[26] = test system: ec302 (TEM-10); test: Aztreonam potentiation (MPC@4); assay type: cell-based; details: aztreonam 4 μg/mL

Sequence of P99 (P05364 21-381): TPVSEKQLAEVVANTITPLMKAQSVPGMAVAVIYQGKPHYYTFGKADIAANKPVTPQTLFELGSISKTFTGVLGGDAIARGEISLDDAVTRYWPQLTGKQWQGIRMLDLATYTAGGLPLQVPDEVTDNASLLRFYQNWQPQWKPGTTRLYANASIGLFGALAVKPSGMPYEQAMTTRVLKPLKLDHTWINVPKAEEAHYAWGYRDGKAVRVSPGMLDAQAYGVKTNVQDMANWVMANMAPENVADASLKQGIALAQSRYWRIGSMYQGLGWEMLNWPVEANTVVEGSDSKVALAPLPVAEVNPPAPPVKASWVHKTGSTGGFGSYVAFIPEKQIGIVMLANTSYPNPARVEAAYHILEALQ
Sequence of SHV-12 (P0AD64 22-286 L31Q/G234S/E235K): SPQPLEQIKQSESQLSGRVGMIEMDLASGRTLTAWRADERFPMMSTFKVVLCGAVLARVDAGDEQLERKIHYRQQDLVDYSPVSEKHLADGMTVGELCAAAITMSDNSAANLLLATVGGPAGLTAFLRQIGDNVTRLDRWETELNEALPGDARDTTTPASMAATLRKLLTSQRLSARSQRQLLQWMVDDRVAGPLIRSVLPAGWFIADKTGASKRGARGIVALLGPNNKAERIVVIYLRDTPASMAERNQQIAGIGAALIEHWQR
Sequence of KPC-2 (Q9F663 25-293, looked up, species assumed): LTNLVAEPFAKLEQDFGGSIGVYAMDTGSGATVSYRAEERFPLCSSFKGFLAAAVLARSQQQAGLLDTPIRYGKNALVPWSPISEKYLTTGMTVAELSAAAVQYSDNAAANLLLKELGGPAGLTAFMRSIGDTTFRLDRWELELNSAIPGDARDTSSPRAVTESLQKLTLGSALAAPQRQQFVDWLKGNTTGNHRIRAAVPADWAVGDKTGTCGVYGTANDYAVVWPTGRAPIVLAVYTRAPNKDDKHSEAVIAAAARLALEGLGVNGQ
Sequence of OXA-48 (Q6XEC0 23-265, looked up, species assumed): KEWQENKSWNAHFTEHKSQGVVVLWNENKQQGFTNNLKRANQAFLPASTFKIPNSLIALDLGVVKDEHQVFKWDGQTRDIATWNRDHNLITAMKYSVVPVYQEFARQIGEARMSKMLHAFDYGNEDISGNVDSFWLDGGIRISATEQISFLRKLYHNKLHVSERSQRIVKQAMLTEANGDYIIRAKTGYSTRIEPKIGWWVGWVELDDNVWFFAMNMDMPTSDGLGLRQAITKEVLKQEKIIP
Sequence of CTX-M-14 (Q9L5C7 29-291): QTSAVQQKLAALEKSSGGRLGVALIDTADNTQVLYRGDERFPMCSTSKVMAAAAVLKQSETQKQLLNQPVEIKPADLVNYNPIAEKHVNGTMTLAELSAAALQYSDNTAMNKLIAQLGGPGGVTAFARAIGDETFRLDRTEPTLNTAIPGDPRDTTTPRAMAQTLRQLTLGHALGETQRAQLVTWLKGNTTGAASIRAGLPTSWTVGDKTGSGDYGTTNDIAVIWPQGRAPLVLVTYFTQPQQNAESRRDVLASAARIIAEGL
Sequence of CMY-2 (Q48434 21-381, species assumed): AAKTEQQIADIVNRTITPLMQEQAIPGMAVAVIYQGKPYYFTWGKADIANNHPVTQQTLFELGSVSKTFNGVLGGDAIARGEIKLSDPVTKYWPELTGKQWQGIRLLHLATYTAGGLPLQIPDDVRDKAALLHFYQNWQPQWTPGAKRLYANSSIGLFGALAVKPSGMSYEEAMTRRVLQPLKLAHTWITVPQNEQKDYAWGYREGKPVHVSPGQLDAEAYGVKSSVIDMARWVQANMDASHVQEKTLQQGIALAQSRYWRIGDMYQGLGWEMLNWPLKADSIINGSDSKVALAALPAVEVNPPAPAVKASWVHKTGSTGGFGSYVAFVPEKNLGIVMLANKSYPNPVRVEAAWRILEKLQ

| Compound | MPC@4 aztreonam potentiation [1] | MPC@4 tigemonam potentiation [2] | PAM1032/KPC-2 Biapenem MPC64 [3] | MPC@4 aztreonam potentiation [4] | MPC@4 aztreonam potentiation [5] | MPC@4 aztreonam potentiation [6] | Ki [7] [nM] | MPC@4 aztreonam potentiation [9] | MPC@1 biapenem potentiation [10] | MPC@4 tigemonam potentiation [11] | MPC@4 aztreonam potentiation [12] | Ki [13] [nM] | Ki [14] [nM] | PAM1154/KPC-2 Biapenem MPC64 [15] | MPC@4 tigemonam potentiation [16] | Ki [17] [nM] | Ki [19] [nM] | MPC@4 tigemonam potentiation [20] | MPC@4 tigemonam potentiation [21] | MPC@1 biapenem potentiation [22] | other results |
| --- | --- | --- | --- | --- | --- | --- | --- | --- | --- | --- | --- | --- | --- | --- | --- | --- | --- | --- | --- | --- | --- |
| Cn1cnnc1SCC(=O)N[C@H]1CC=C[C@@H]2CC(=O)OB1O2 [Compound 5, 2-(4-METHYL-4H-1,2,4-TRIAZOL-3-YLTHIO)-N-((2R,6S)-8-OXO-9,10-DIOXA-1-BORABICYCLO[4.3.1]DEC-4-EN-2-YL)ACETAMIDE] | Y (Y = 5 μg/mL < MPC@4 ≤ 20 μg/mL) | Z (Z = MPC@4 > 20 μg/mL) | 80 | X (X = MPC@4 ≤ 5 μg/mL) | X (X = MPC@4 ≤ 5 μg/mL) | X (X = MPC@4 ≤ 5 μg/mL) | < 100 | X (X = MPC@4 ≤ 5 μg/mL) | X (X = MPC@1 ≤ 5 μg/mL) | X (X = MPC@4 ≤ 5 μg/mL) | X (X = MPC@4 ≤ 5 μg/mL) | < 100 | < 100 | 20 | X (X = MPC@4 ≤ 5 μg/mL) | 100 to 1000 | 100 to 1000 | X (X = MPC@4 ≤ 5 μg/mL) | X (key: X = MPC@4 ≤ 5 μg/mL; Y = 5 μg/mL < MPC@4 ≤ 20 μg/mL; Z = MPC@4 > 20 μg/mL) | Z (Z = MPC@1 > 20 μg/mL) | bioavailability ([8]; single oral dose 50 mg/kg): 2.5 to 3%; Ki [18]: < 100 nM; MPC@4 tigemonam potentiation [23]: X (key: X = MPC@4 ≤ 5 μg/mL; Y = 5 μg/mL < MPC@4 ≤ 20 μg/mL; Z = MPC@4 > 20 μg/mL); MPC@4 tigemonam potentiation [24]: X (X = MPC@4 ≤ 5 μg/mL); MPC@4 aztreonam potentiation [25]: X (X = MPC@4 ≤ 5 μg/mL) |
| O=C(CSC(F)F)N[C@H]1CC=C[C@@H]2CC(=O)OB1O2 [Compound 3, 2-(DIFLUOROMETHYLTHIO)-N-((2R,6S)-8-OXO-9,10-DIOXA-1-BORABICYCLO[4.3.1]DEC-4-EN-2-YL)ACETAMIDE] | X (X = MPC@4 ≤ 5 μg/mL) | Y (Y = 5 μg/mL < MPC@4 ≤ 20 μg/mL) | >80 | X (X = MPC@4 ≤ 5 μg/mL) | X (X = MPC@4 ≤ 5 μg/mL) | X (X = MPC@4 ≤ 5 μg/mL) | < 100 | X (X = MPC@4 ≤ 5 μg/mL) | X (X = MPC@1 ≤ 5 μg/mL) | X (X = MPC@4 ≤ 5 μg/mL) | X (X = MPC@4 ≤ 5 μg/mL) | < 100 | < 100 | 5 | X (X = MPC@4 ≤ 5 μg/mL) | 100 to 1000 | < 100 | X (X = MPC@4 ≤ 5 μg/mL) | X (key: X = MPC@4 ≤ 5 μg/mL; Y = 5 μg/mL < MPC@4 ≤ 20 μg/mL; Z = MPC@4 > 20 μg/mL) | Z (Z = MPC@1 > 20 μg/mL) | bioavailability ([8]; single oral dose 30 mg/kg): 28 to 54%; MPC@4 aztreonam potentiation [26]: X (X = MPC@4 ≤ 5 μg/mL); MPC@4 tigemonam potentiation [23]: X (key: X = MPC@4 ≤ 5 μg/mL; Y = 5 μg/mL < MPC@4 ≤ 20 μg/mL; Z = MPC@4 > 20 μg/mL); MPC@4 tigemonam potentiation [24]: X (X = MPC@4 ≤ 5 μg/mL); MPC@4 aztreonam potentiation [25]: X (X = MPC@4 ≤ 5 μg/mL) |
| O=C(CSc1nncs1)N[C@H]1CC=C[C@@H]2CC(=O)OB1O2 [Compound 7, 2-(1,3,4-THIADIAZOL-2-YLTHIO)-N-((2R,6S)-8-OXO-9,10-DIOXA-1-BORABICYCLO[4.3.1]DEC-4-EN-2-YL)ACETAMIDE] | X (X = MPC@4 ≤ 5 μg/mL) | Y (Y = 5 μg/mL < MPC@4 ≤ 20 μg/mL) | 40 | X (X = MPC@4 ≤ 5 μg/mL) | X (X = MPC@4 ≤ 5 μg/mL) | X (X = MPC@4 ≤ 5 μg/mL) | < 100 | X (X = MPC@4 ≤ 5 μg/mL) | X (X = MPC@1 ≤ 5 μg/mL) | X (X = MPC@4 ≤ 5 μg/mL) | X (X = MPC@4 ≤ 5 μg/mL) | < 100 | < 100 | 5 | X (X = MPC@4 ≤ 5 μg/mL) | 100 to 1000 | < 100 | X (X = MPC@4 ≤ 5 μg/mL) | X (key: X = MPC@4 ≤ 5 μg/mL; Y = 5 μg/mL < MPC@4 ≤ 20 μg/mL; Z = MPC@4 > 20 μg/mL) | Z (Z = MPC@1 > 20 μg/mL) | Ki [18]: < 100 nM; MPC@4 aztreonam potentiation [26]: X (X = MPC@4 ≤ 5 μg/mL); MPC@4 tigemonam potentiation [23]: X (key: X = MPC@4 ≤ 5 μg/mL; Y = 5 μg/mL < MPC@4 ≤ 20 μg/mL; Z = MPC@4 > 20 μg/mL); MPC@4 tigemonam potentiation [24]: X (X = MPC@4 ≤ 5 μg/mL); MPC@4 aztreonam potentiation [25]: X (X = MPC@4 ≤ 5 μg/mL) |

From patent US10662205B2, “Cyclic boronic acid ester derivatives and therapeutic uses thereof” (priority 2014, dated 2020)
